By IC50 is commonly meant the midpoint of a concentration-inhibition curve.

The source of these data is patent US9938258B2 (Karyopharm Therapeutics Inc., priority 2012, dated 2018).

The structures appear in SMILES notation. Read-outs that look alike come from different tables or passages of the source.

The test system of one assay is Z138 cells. The experiment in a line: MTT cell proliferation assay, Z138. The format is cell-based. The following applies: Homo sapiens, Z-138, Z138 cells, read-out: MTT Assay IC50, Z138. In a few lines:
(§1)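 Cells plated at 5,000-10,000/well and attached overnight, then treated with eight compound concentrations from 1 nM to 30 μM. MTT added ~4 h, formazan solubilised and read at 490 nm. Percent inhibition versus negative control = (1-(ODo/OD))×100, mostly in duplicate, mean ± SE.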

Another assay deals with 3T3 cells. The experiment in a line: MTT cell proliferation assay, 3T3. The format is cell-based, mouse. The following applies: Mus musculus, NIH3T3, 3T3 cells, read-out: MTT Assay IC50, 3T3. In a few lines:
as §1

The subject of a further assay is MS751 cells. The experiment in a line: MTT cell proliferation assay, MS751. The following applies: Homo sapiens, MS751, MS751 cells, read-out: MTT Assay IC50, MS751. The format is cell-based, human. A digest of the protocol: as §1
In general terms: Tetrazolium assays rely on reduction of a dye to a coloured formazan, in cell work by metabolically active cells.

The mark [1] stands for this setting: approximately 64-72 hours incubation.
The mark [2] stands for this setting: eight concentrations 1 nM to 30 μM, incubation approximately 64-72 hours.

`Cc1noc(C)c1-c1cc(Cl)c2c(c1)CC(CNC(=O)/C=C/c1cccnn1)O2` (stereo not drawn) [Compound 235, (E)-N-((7-chloro-5-(3,5-dimethylisoxazol-4-yl)-2,3-dihydrobenzofuran-2-yl)methyl)-3-(pyridazin-3-yl)acrylamide]: the IC50 with Z138 cells (setting [1]) lay in the range of 0.1 to 5 µM; with 3T3 cells (setting [1]) it was 5 to 30 µM; with MS751 cells (setting [1]), 0.1 to 5 µM.
On to `CC(=O)c1ccc(-c2cc(Cl)c3c(c2)CC(CNC(=O)/C=C/c2cc(C)n(-c4ccccc4)c2C)O3)s1` (stereo not drawn) [Compound 301, (E)-N-((5-(5-Acetylthiophen-2-yl)-7-chloro-2,3-dihydrobenzofuran-2-yl)methyl)-3-(2,5-dimethyl-1-phenyl-1H-pyrrol-3-yl)acrylamide], for which the IC50 with Z138 cells (setting [1]), in the assay on 3T3 cells (setting [1]) and in the assay on MS751 cells (setting [1]) was over 30 µM in each case.
`CC(=O)c1ccc(-c2cc(Cl)c3c(c2)CC(CNC(=O)/C=C/c2ccc(N)cc2)O3)s1` (stereo not drawn) [Compound 114, (E)-N-((5-(5-acetylthiophen-2-yl)-7-chloro-2,3-dihydrobenzofuran-2-yl)methyl)-3-(4-aminophenyl)acrylamide]: the IC50 in the assay on Z138 cells (setting [2]), in the assay on 3T3 cells (setting [2]) and in the assay with MS751 cells (setting [2]) was over 30 µM throughout.
As to `CC(C)(O)c1ccc(-c2cc(Cl)c3c(c2)CC(CNC(=O)/C=C/c2cccnn2)O3)s1` (stereo not drawn) [Compound 320, (E)-N-((7-chloro-5-(5-(2-hydroxypropan-2-yl)thiophen-2-yl)-2,3-dihydrobenzofuran-2-yl)methyl)-3-(pyridazin-3-yl)acrylamide], the IC50 in the assay with Z138 cells (setting [1]), in the assay with 3T3 cells (setting [1]) and in the assay on MS751 cells (setting [1]) was 0.1 to 5 µM throughout.
With `Cc1cc(Cl)c2c(c1)CC(CNC(=O)/C=C/c1cccnc1)O2` (stereo not drawn) [Compound 275, (E)-N-((7-chloro-5-methyl-2,3-dihydrobenzofuran-2-yl)methyl)-3-(pyridin-3-yl)acrylamide], the values for the IC50 in the assay with Z138 cells (setting [2]), in the assay on 3T3 cells (setting [2]) and in the assay with MS751 cells (setting [2]) were 5 to 30 µM, over 30 µM and 5 to 30 µM, respectively.
Turning to `Nc1ccc(/C=C/C(=O)NCC2Cc3cc(-c4cc(F)c(C(=O)N5CCOCC5)c(F)c4)cc(Cl)c3O2)cn1` (stereo not drawn) [Compound 332, (E)-3-(6-Aminopyridin-3-yl)-N-((7-chloro-5-(3,5-difluoro-4-(morpholine-4-carbonyl)phenyl)-2,3-dihydrobenzofuran-2-yl)methyl)acrylamide], the values for the IC50 with Z138 cells (setting [1]), in the assay with 3T3 cells (setting [1]) and with MS751 cells (setting [1]) were under 0.1 µM, 0.1 to 5 µM and under 0.1 µM, respectively.
Regarding `CCn1cc(/C=C/C(=O)NCC2Cc3cc(-c4ccc(C(C)=O)s4)cc(Cl)c3O2)cn1` (stereo not drawn) [Compound 155, (E)-N-((5-(5-acetylthiophen-2-yl)-7-chloro-2,3-dihydrobenzofuran-2-yl)methyl)-3-(1-ethyl-1H-pyrazol-4-yl)acrylamide], the IC50 with Z138 cells (setting [2]), in the assay on 3T3 cells (setting [2]) and with MS751 cells (setting [2]) was over 30 µM each time.
Regarding `Cc1ccc(-c2cc(Cl)c3c(c2)CC(CNC(=O)/C=C/c2cccnc2)O3)cc1` (stereo not drawn) [Compound 15, (E)-N-((7-chloro-5-p-tolyl-2,3-dihydrobenzofuran-2-yl)methyl)-3-(pyridin-3-yl) acrylamide], the IC50 in the assay on Z138 cells (setting [2]) lay within 0.1 to 5 µM; in the assay on 3T3 cells (setting [2]) it was 5 to 30 µM; in the assay with MS751 cells (setting [2]), 0.1 to 5 µM.
With `CC(=O)c1ccc(-c2cc(Cl)c3c(c2)CC(CNC(=O)/C=C/c2cn(C)c4ccccc24)O3)s1` (stereo not drawn) [Compound 189, (E)-N-((5-(5-acetylthiophen-2-yl)-7-chloro-2,3-dihydrobenzofuran-2-yl)methyl)-3-(1-methyl-1H-indol-3-yl)acrylamide], the IC50 with Z138 cells (setting [2]), with 3T3 cells (setting [2]) and in the assay on MS751 cells (setting [2]) was over 30 µM each time.
With `CC(=O)c1ccc(-c2cc(Cl)c3c(c2)CC(CNC(=O)/C=C/c2ccc(C#N)cc2)O3)s1` (stereo not drawn) [Compound 112, (E)-N-((5-(5-acetylthiophen-2-yl)-7-chloro-2,3-dihydrobenzofuran-2-yl)methyl)-3-(4-cyanophenyl)acrylamide], the IC50 in the assay on Z138 cells (setting [2]), with 3T3 cells (setting [2]) and in the assay on MS751 cells (setting [2]) was over 30 µM each time.
On to `CC(=O)c1ccc(-c2cc(Cl)c3c(c2)CC(CNC(=O)/C=C\c2cccnc2)O3)s1` (stereo not drawn) [Compound 299, (Z)-N-((5-(5-acetylthiophen-2-yl)-7-chloro-2,3-dihydrobenzofuran-2-yl)methyl)-3-(pyridin-3-yl)acrylamide], for which the IC50 in the assay with Z138 cells (setting [1]) is 0.1 to 5 µM; in the assay on 3T3 cells (setting [1]), over 30 µM; in the assay with MS751 cells (setting [1]), 0.1 to 5 µM.
As for `CC(=O)c1ccc(-c2cc(Cl)c3c(c2)CC(CNC(=O)/C=C/c2ccc(N)nc2)O3)o1` (stereo not drawn) [Compound 319, (E)-N-((5-(5-acetylfuran-2-yl)-7-chloro-2,3-dihydrobenzofuran-2-yl)methyl)-3-(6-aminopyridine-3-yl)acrylamide], the IC50 is under 0.1 µM in the assay with Z138 cells (setting [1]), 5 to 30 µM in the assay on 3T3 cells (setting [1]) and 0.1 to 5 µM with MS751 cells (setting [1]).
Regarding `CC(=O)c1ccc(-c2cc(Cl)c3c(c2)CC(CNC(=O)/C=C/c2c(C)nn(-c4ccc(F)cc4)c2Cl)O3)s1` (stereo not drawn) [Compound 284, (E)-N-((5-(5-acetylthiophen-2-yl)-7-chloro-2,3-dihydrobenzofuran-2-yl)methyl)-3-(5-chloro-1-(4-fluorophenyl)-3-methyl-1H-pyrazol-4-yl)acrylamide], the IC50 with Z138 cells (setting [1]), in the assay with 3T3 cells (setting [1]) and in the assay on MS751 cells (setting [1]) was over 30 µM in each case.
Regarding `CN1CCN(C(=O)c2ccc(-c3cc(Cl)c4c(c3)CC(CNC(=O)/C=C/c3ccc(N)nc3)O4)cc2)CC1` (stereo not drawn) [Compound 237, (E)-3-(6-aminopyridin-3-yl)-N-((7-chloro-5-(4-(4-methylpiperazine-1-carbonyl)phenyl)-2,3-dihydrobenzofuran-2-yl)methyl)acrylamide], the results for the IC50 with Z138 cells (setting [1]), with 3T3 cells (setting [1]) and in the assay with MS751 cells (setting [1]) were under 0.1 µM, 0.1 to 5 µM and under 0.1 µM, respectively.
On to `Nc1ccc(/C=C/C(=O)NCC2Cc3cc(-c4ccc(S(=O)(=O)N5CCOCC5)cc4)cc(Cl)c3O2)cn1` (stereo not drawn) [Compound 914, (E)-3-(6-aminopyridin-3-yl)-N-((7-chloro-5-(4-(morpholinosulfonyl)phenyl)-2,3-dihydrobenzofuran-2-yl)methyl)acrylamide], for which the IC50 is under 0.1 µM in the assay on Z138 cells (setting [1]), 0.1 to 5 µM with 3T3 cells (setting [1]) and under 0.1 µM with MS751 cells (setting [1]).
Consider `O=C(/C=C/c1cccnc1)NCC1Cc2cc(-c3cccc(CO)c3)cc(Cl)c2O1` (stereo not drawn) [Compound 58, (E)-N-((7-chloro-5-(3-(hydroxymethyl)phenyl)-2,3-dihydrobenzofuran-2-yl)methyl)-3-(pyridin-3-yl)acrylamide], for which the IC50 in the assay with Z138 cells (setting [2]), with 3T3 cells (setting [2]) and with MS751 cells (setting [2]) was 0.1 to 5 µM in each case.
As to `Cc1onc(-c2ccccc2)c1-c1cc(Cl)c2c(c1)CC(CNC(=O)/C=C/c1ccc(N)nc1)O2` (stereo not drawn) [Compound 325, (E)-3-(6-aminopyridin-3-yl)-N-((7-chloro-5-(5-methyl-3-phenylisoxazol-4-yl)-2,3-dihydrobenzofuran-2-yl)methyl)acrylamide], the results for the IC50 in the assay on Z138 cells (setting [1]), in the assay with 3T3 cells (setting [1]) and in the assay on MS751 cells (setting [1]) were under 0.1 µM, 0.1 to 5 µM and 0.1 to 5 µM, respectively.
As to `Nc1ccc(/C=C/C(=O)NCC2Cc3cc(-c4ccc(C(=O)N5CCOCC5)nn4)cc(Cl)c3O2)cn1` (stereo not drawn) [Compound 331, (E)-3-(6-Aminopyridin-3-yl)-N-((7-chloro-5-(6-(morpholine-4-carbonyl)pyridazin-3-yl)-2,3-dihydrobenzofuran-2-yl)methyl)acrylamide], the figures for the IC50 with Z138 cells (setting [1]), in the assay on 3T3 cells (setting [1]) and in the assay on MS751 cells (setting [1]) were under 0.1 µM, 5 to 30 µM and 0.1 to 5 µM, respectively.
Consider `COc1ccc(F)cc1-c1cc(Cl)c2c(c1)CC(CNC(=O)/C=C/c1cccnc1)O2` (stereo not drawn) [Compound 61, (E)-N-((7-chloro-5-(5-fluoro-2-methoxyphenyl)-2,3-dihydrobenzofuran-2-yl)methyl)-3-(pyridin-3-yl)acrylamide], for which the IC50 in the assay with Z138 cells (setting [2]), in the assay on 3T3 cells (setting [2]) and in the assay on MS751 cells (setting [2]) was 0.1 to 5 µM in each case.
Consider `O=C(/C=C/c1cccnc1)NCC1Cc2cc(-c3cc(C(F)(F)F)cc(C(F)(F)F)c3)cc(Cl)c2O1` (stereo not drawn) [Compound 49, (E)-N-((5-(3,5-bis(trifluoromethyl)phenyl)-7-chloro-2,3-dihydrobenzofuran-2-yl)methyl)-3-(pyridin-3-yl)acrylamide], for which the IC50 in the assay with Z138 cells (setting [2]), in the assay on 3T3 cells (setting [2]) and in the assay with MS751 cells (setting [2]) was 0.1 to 5 µM in each case.
On to `Nc1ccc(/C=C/C(=O)NCC2Cc3cc(-c4ccc(C(=O)N5CCCCC5)cn4)cc(Cl)c3O2)cn1` (stereo not drawn) [Compound 339, (E)-3-(6-aminopyridin-3-yl)-N-((7-chloro-5-(5-(piperidine-1-carbonyl)pyridin-2-yl)-2,3-dihydrobenzofuran-2-yl)methyl)acrylamide], for which the results for the IC50 with Z138 cells (setting [1]), with 3T3 cells (setting [1]) and with MS751 cells (setting [1]) were under 0.1 µM, 5 to 30 µM and 0.1 to 5 µM, respectively.
Take `CC(=O)c1ccc(-c2cc(Cl)c3c(c2)CC(CNC(=O)/C=C/c2csc4ccccc24)O3)s1` (stereo not drawn) [Compound 200, (E)-N-((5-(5-acetylthiophen-2-yl)-7-chloro-2,3-dihydrobenzofuran-2-yl)methyl)-3-(benzo[b]thiophen-3-yl) acrylamide]: the IC50 in the assay on Z138 cells (setting [1]), in the assay on 3T3 cells (setting [1]) and with MS751 cells (setting [1]) was over 30 µM throughout.
`CC(=O)c1ccc(-c2cc(Cl)c3c(c2)CC(CNC(=O)/C=C/c2cscn2)O3)s1` (stereo not drawn) [Compound 272, (E)-N-((5-(5-Acetylthiophen-2-yl)-7-chloro-2,3-dihydrobenzofuran-2-yl)methyl)-3-(thiazol-4-yl)acrylamide]: the figures for the IC50 in the assay on Z138 cells (setting [2]), with 3T3 cells (setting [2]) and in the assay with MS751 cells (setting [2]) were over 30 µM, 5 to 30 µM and over 30 µM, respectively.
